Experimental data as given in patent US8404708B2, “Dual NK1/NK3 receptor antagonists” (Hoffmann-La Roche Inc., priority 2004, dated 2013).
Read-outs that look alike come from different tables or passages of the source.

How the values were obtained:
[1] = target: human NK1 receptor (Homo sapiens, UniProt P25103); assay: NK1 receptor binding, [3H]substance P displacement, CHO cell membranes
[2] = target: T1, Recombinant human NK3 (hNK3) receptor (Homo sapiens, UniProt P29371); assay: NK3 receptor binding, [3H]SR142801 displacement, membrane preparations
T1 construct: expressed in transfected cells
T1 sequence (P29371 1-465): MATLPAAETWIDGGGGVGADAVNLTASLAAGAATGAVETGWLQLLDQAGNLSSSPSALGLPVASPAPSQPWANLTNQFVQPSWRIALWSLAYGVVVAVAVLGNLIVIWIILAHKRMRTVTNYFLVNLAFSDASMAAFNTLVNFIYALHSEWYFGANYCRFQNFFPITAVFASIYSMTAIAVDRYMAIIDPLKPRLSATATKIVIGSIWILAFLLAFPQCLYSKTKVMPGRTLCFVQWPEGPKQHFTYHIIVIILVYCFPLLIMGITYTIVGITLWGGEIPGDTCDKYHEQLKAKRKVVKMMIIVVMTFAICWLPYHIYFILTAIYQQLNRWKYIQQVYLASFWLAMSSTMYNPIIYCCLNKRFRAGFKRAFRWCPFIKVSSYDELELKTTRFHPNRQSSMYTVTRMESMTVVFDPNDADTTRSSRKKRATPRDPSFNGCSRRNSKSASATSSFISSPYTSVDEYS
Description: Non specific binding was determined using 10 μM SB222200. Assay buffer consisted of Tris-HCl (50 mM, pH 7.4), BSA (0.1%), MnCl2 (4 mM) and phosphoramidon (1 μM). Membrane preparations of hNK3 receptors (approximately 2.5 μg/well in a 96 well plate) were used to initiate the incubation for 90 min at room temperature. This assay was terminated by rapid filtration under vacuum through GF/C filters, presoaked for 90 min with PEI (0.3%), with 3×0.5 ml washes of ice-cold Tris buffer (50 mM, pH 7.4) containing 0.1% BSA. The radioactivity retained on the filters was measured by scintillation counting. All assays were performed in duplicate in at least two separate experiments.

[3] = first value of the cell NK1/NK3, read-out: pKi NK1 (converted)
[4] = second value of the cell NK1/NK3, read-out: pKi NK3 (converted)
[5] = first value of the cell pKi NK1/NK3, human NK1 receptor, [3H]substance P
[6] = second value of the cell pKi NK1/NK3, hNK3 receptor, [3H]SR142801

Chain of human NK1 receptor (P25103 whole entry): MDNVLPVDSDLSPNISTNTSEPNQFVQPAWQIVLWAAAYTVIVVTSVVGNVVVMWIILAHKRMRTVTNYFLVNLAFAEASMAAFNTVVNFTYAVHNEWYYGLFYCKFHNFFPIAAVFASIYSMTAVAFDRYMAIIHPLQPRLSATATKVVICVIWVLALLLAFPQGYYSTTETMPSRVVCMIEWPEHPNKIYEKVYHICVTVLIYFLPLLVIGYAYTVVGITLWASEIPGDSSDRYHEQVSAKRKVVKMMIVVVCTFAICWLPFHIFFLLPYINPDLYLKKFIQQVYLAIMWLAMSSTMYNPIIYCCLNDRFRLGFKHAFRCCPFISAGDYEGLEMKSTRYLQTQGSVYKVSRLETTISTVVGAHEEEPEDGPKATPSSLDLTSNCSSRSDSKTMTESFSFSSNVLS

| Ki [1, 3] [nM] | Ki [2, 4] [nM] | Ki [1, 5] [nM] | Ki [2, 6] [nM] | SMILES |
| --- | --- | --- | --- | --- |
| 1.32 | 6.92 |  |  | CN(C(=O)C(C)(C)c1cc(C(F)(F)F)cc(C(F)(F)F)c1)c1cnc(N2C[C@@H](O)C[C@H]2CO)cc1-c1ccccc1F [Example 242, (2S,4S)-2-(3,5-Bis-trifluoromethyl-phenyl)-N-[4-(2-fluoro-phenyl)-6-(4-hydroxy-2-hydroxymethyl-pyrrolidin-1-yl)-pyridin-3-yl]-N-methyl-isobutyramide] |
|  |  | 2.88 | 11 | Cc1ccccc1-c1cc(N(CC(C)O)CC(C)O)ncc1N(C)C(=O)C(C)(C)c1cc(C(F)(F)F)cc(C(F)(F)F)c1 (centres unmarked) [Example 121, N-{6-[Bis-(2-hydroxy-propyl)-amino]-4-o-tolyl-pyridin-3-yl}-2-(3,5-bis-trifluoromethyl-phenyl)-N-methyl-isobutyramide] |
|  |  | 1.62 | 15.8 | Cc1cc(F)ccc1-c1cc(N2CCNC(=O)CC2)ncc1N(C)C(=O)C(C)(C)c1cc(C(F)(F)F)cc(C(F)(F)F)c1 [Example 164, 2-(3,5-Bis-trifluoromethyl-phenyl)-N-[4-(4-fluoro-2-methyl-phenyl)-6-(5-oxo-[1,4]diazepan-1-yl)-pyridin-3-yl]-N-methyl-isobutyramide] |
| 2.57 | 1.07 |  |  | Cc1ccccc1-c1cc(N2CC(F)(F)C[C@H]2CO)ncc1N(C)C(=O)C(C)(C)c1cc(C(F)(F)F)cc(C(F)(F)F)c1 [Example 299, (S)-2-(3,5-Bis-trifluoromethyl-phenyl)-N-[6-(4,4-difluoro-2-hydroxymethyl-pyrrolidin-1-yl)-4-o-tolyl-pyridin-3-yl]-N-methyl-isobutyramide] |
|  | 5.75 |  |  | COc1cc(OC)cc(C(C)(C)C(=O)N(C)c2cnc(N3C[C@H](O)C[C@H]3CO)cc2-c2ccc(F)cc2C)c1 [Example 403, (2S,4R)-2-(3,5-Dimethoxy-phenyl)-N-[4-(4-fluoro-2-methyl-phenyl)-6-(4-hydroxy-2-hydroxymethyl-pyrrolidin-1-yl)-pyridin-3-yl]-N-methyl-isobutyramide] |
|  |  | 2.09 | 3.09 | Cc1ccccc1-c1cc(N(C)CCO)ncc1N(C)C(=O)C(C)(C)c1cc(C(F)(F)F)cc(C(F)(F)F)c1 [Example 117, 2-(3,5-Bis-trifluoromethyl-phenyl)-N-{6-[(2-hydroxy-ethyl)-methyl-amino]-4-o-tolyl-pyridin-3-yl}-N-methyl-isobutyramide] |
|  |  | 7.08 | 12.9 | Cc1ccccc1-c1cc(N2CCC(CO)CC2)ncc1N(C)C(=O)C(C)(C)c1cc(C(F)(F)F)cc(C(F)(F)F)c1 [Example 172, 2-(3,5-Bis-trifluoromethyl-phenyl)-N-(4-hydroxymethyl-4′-o-tolyl-3,4,5,6-tetrahydro-2H-[1,2′]bipyridinyl-5′-yl)-N-methyl-isobutyramide] |
|  |  | 2.51 | 15.5 | Cc1cc(F)ccc1-c1cc(N2[C@@H](CO)CC[C@@H]2CO)ncc1N(C)C(=O)C(C)(C)c1cc(C(F)(F)F)cc(C(F)(F)F)c1 [Example 199, (2R,5R)-N-[6-(2,5-Bis-hydroxymethyl-pyrrolidin-1-yl)-4-(4-fluoro-2-methyl-phenyl)-pyridin-3-yl]-2-(3,5-bis-trifluoromethyl-phenyl)-N-methyl-isobutyramide] |
|  |  | 1.66 | 25.7 | CN(C(=O)C(C)(C)c1cc(C(F)(F)F)cc(C(F)(F)F)c1)c1cnc(N2CC[C@H](O)[C@H](O)C2)cc1-c1ccccc1Cl (racemic) [Example 187, (3RS,4SR)-2-(3,5-Bis-trifluoromethyl-phenyl)-N-[4′-(2-chloro-phenyl)-3,4-dihydroxy-3,4,5,6-tetrahydro-2H-[1,2′]bipyridinyl-5′-yl]-N-methyl-isobutyramide] |
|  |  | 1.41 | 14.5 | CN(C(=O)C(C)(C)c1cc(C(F)(F)F)cc(C(F)(F)F)c1)c1cnc(N2CCCC(O)C2)cc1-c1ccccc1Cl (racemic) [Example 50, (RS)-2-(3,5-Bis-trifluoromethyl-phenyl)-N-[4′-(2-chloro-phenyl)-3-hydroxy-3,4,5,6-tetrahydro-2H-[1,2′]bipyridinyl-5′-yl]-N-methyl-isobutyramide] |
| 3.89 | 4.68 |  |  | CN(C(=O)C(C)(C)c1cc(C(F)(F)F)cc(C(F)(F)F)c1)c1cnc(N2C[C@@H](O)C[C@H]2CO)cc1-c1ccccc1C(F)(F)F [Example 243, (2S,4S)-2-(3,5-Bis-trifluoromethyl-phenyl)-N-[6-(4-hydroxy-2-hydroxymethyl-pyrrolidin-1-yl)-4-(2-trifluoromethyl-phenyl)-pyridin-3-yl]-N-methyl-isobutyramide] |
| 1.32 | 8.91 |  |  | CN(C(=O)C(C)(C)c1cc(C(F)(F)F)cc(C(F)(F)F)c1)c1cnc(N2C[C@@H](O)C[C@H]2CO)cc1-c1cccc(F)c1 [Example 251, (2S,4S)-2-(3,5-Bis-trifluoromethyl-phenyl)-N-[4-(3-fluoro-phenyl)-6-(4-hydroxy-2-hydroxymethyl-pyrrolidin-1-yl)-pyridin-3-yl]-N-methyl-isobutyramide] |
| 0.955 | 0.49 |  |  | Cc1cc(F)ccc1-c1cc(N2CC(F)(F)C[C@H]2CO)ncc1N(C)C(=O)C(C)(C)c1cc(C(F)(F)F)cc(C(F)(F)F)c1 [Example 300, (S)-2-(3,5-Bis-trifluoromethyl-phenyl)-N-[6-(4,4-difluoro-2-hydroxymethyl-pyrrolidin-1-yl)-4-(4-fluoro-2-methyl-phenyl)-pyridin-3-yl]-N-methyl-isobutyramide] |
| 2.63 | 7.24 |  |  | CN(C(=O)C(C)(C)c1cc(C(F)(F)F)cc(C(F)(F)F)c1)c1cnc(N2C[C@H](O)C[C@H]2CO)cc1-c1ccccc1S(C)(=O)=O [Example 218, (2S,4R)-2-(3,5-Bis-trifluoromethyl-phenyl)-N-[6-(4-hydroxy-2-hydroxymethyl-pyrrolidin-1-yl)-4-(2-methanesulfonyl-phenyl)-pyridin-3-yl]-N-methyl-isobutyramide] |
|  |  | 3.89 | 32.4 | CCN(CCO)c1cc(-c2ccc(F)cc2)c(N(C)C(=O)C(C)(C)c2cc(C(F)(F)F)cc(C(F)(F)F)c2)cn1 [Example 116, 2-(3,5-Bis-trifluoromethyl-phenyl)-N-[6-[ethyl-(2-hydroxy-ethyl)-amino]-4-(4-fluoro-phenyl)-pyridin-3-yl]-N-methyl-isobutyramide] |
|  |  | 10 | 27.5 | CCCCN(CCO)c1cc(-c2ccccc2Cl)c(N(C)C(=O)C(C)(C)c2cc(C(F)(F)F)cc(C(F)(F)F)c2)cn1 [Example 57, 2-(3,5-Bis-trifluoromethyl-phenyl)-N-[6-[butyl-(2-hydroxy-ethyl)-amino]-4-(2-chloro-phenyl)-pyridin-3-yl]-N-methyl-isobutyramide] |
|  |  | 1.95 | 9.12 | Cc1cc(F)ccc1-c1cc(N2CCC(S(C)(=O)=O)C2)ncc1N(C)C(=O)C(C)(C)c1cc(C(F)(F)F)cc(C(F)(F)F)c1 (racemic) [Example 170, (RS)-2-(3,5-Bis-trifluoromethyl-phenyl)-N-[4-(4-fluoro-2-methyl-phenyl)-6-(3-methanesulfonyl-pyrrolidin-1-yl)-pyridin-3-yl]-N-methyl-isobutyramide] |
|  |  | 0.479 | 14.8 | CN(C(=O)C(C)(C)c1cc(C(F)(F)F)cc(C(F)(F)F)c1)c1cnc(N2C[C@@H](O)[C@H](O)C2)cc1-c1ccccc1Cl [Example 49, (3R,4R)-2-(3,5-Bis-trifluoromethyl-phenyl)-N-[4-(2-chloro-phenyl)-6-(3,4-dihydroxy-pyrrolidin-1-yl)-pyridin-3-yl]-N-methyl-isobutyramide] |
|  | 20 |  |  | COc1cc(OC)cc(C(C)(C)C(=O)N(C)c2cnc(NCCO)cc2-c2ccc(F)cc2C)c1 [Example 401, 2-(3,5-Dimethoxy-phenyl)-N-[4-(4-fluoro-2-methyl-phenyl)-6-(2-hydroxy-ethylamino)-pyridin-3-yl]-N-methyl-isobutyramide] |
|  | 4.68 |  |  | COc1cc(OC)cc(C(C)(C)C(=O)N(C)c2cnc(N3CCC[C@H]3CO)cc2-c2ccc(F)cc2C)c1 [Example 402, (S)-2-(3,5-Dimethoxy-phenyl)-N-[4-(4-fluoro-2-methyl-phenyl)-6-(2-hydroxymethyl-pyrrolidin-1-yl)-pyridin-3-yl]-N-methyl-isobutyramide] |
|  | 6.03 |  |  | COc1cc(OC)cc(C(C)(C)C(=O)N(C)c2cnc(N3C[C@H](O)C[C@H]3CO)cc2-c2ccccc2C)c1 [Example 400, (2S,4R)-2-(3,5-Dimethoxy-phenyl)-N-[6-(4-hydroxy-2-hydroxymethyl-pyrrolidin-1-yl)-4-o-tolyl-pyridin-3-yl]-N-methyl-isobutyramide] |
